Laboratory results from patent US8110654B2, “T cell epitope peptides of ovarian cancer anti-idiotypic antibody 6B11 and use thereof” (Peking University People;s Hospital, priority 2006, dated 2012).

System: anti-idiotype antibody 6B11-CTLs (reacting cells)
Test: BrdU ELISA cell proliferation assay, 6B11-CTLs stimulated by loaded DCs
Type: cell-based, human
Conditions: for proliferation after blocking by MHC class II antibodies: anti-human MHC class II antibodies 1:20 dilution; for proliferation of reacting cells 6B11-CTLs: stimulating DCs loaded with peptide 30 μg/ml or 6B11 40 μg/ml, 120 hours, BrdU, A450
Description: Peripheral blood was drawn from HLA-A2 healthy human subjects. After EDTA anti-coagulation treatment, peripheral blood monocytes were isolated using Ficoll lymphocyte isolation 1×10^7 monocytes/well and AIM-V culture medium (containing 5% human AB serum) was added to 1 ml. The cells were incubated at 37° C. under 5% CO2 for 2 hours. Non-adherent cells were drawn and removed as lymphocytes and stored in liquid nitrogen for further use. The adherent cells were monocytes.
The monocytes isolated from said 6-well plates were added with 2 ml AIM-V culture medium (containing 5% human AB serum)/well. Recombinant human granulocyte-macrophage colony-stimulating factor (rh GM-CSF) and recombinant human interleukin-4 (rh IL-4) were added simultaneously both to a final concentration of 1000 U/ml, for induced incubation. On Day 4, 1 ml AIM-V culture medium (containing 5% human AB serum) was supplemented, and rh GM-CSF and rh IL-4 of the same concentration as mentioned above were also supplemented. On Day 6, 1 ml AIM-V culture medium (containing 5% human AB serum) was supplemented again. At the same time, recombinant human tumor necrosis factor-α (rh TNF-α), recombinant human α-interferon (rh IFN-α) and recombinant human interleukin-6 (rh IL-6) were added, all to a final concentration of 1000 U/ml, and prostaglandin E2 (PGE2) was added to a final concentration of 1 μg/ml. Co-incubation lasted 24 hours for inducing mature DCs.
On Day 4 during incubation of DCs, the culture medium, rh GM-CSF and rh IL-4 were supplemented. At the same time, anti-idiotype antibody 6B11 was added to a final concentration of 40 μg/ml for loading. The loaded cells were stored as stimulating cells for further use.
Mature DCs induced were harvested, washed and adjusted to a concentration of 1×10^6 cells/ml. Six CDR peptides (SEQ ID NOs: 1-6, see Table 1, artificially synthesized) in a final concentration of 30 μg/ml respectively, or each peptide of 30 μg/ml together with keyhole limpet hemocyanin (KLH) of 5 μg/ml were added for loading. The loaded cells were stored as stimulating cells for further use.
The freeze-stored autologous lymphocytes were stimulated by DCs loaded with anti-idiotype antibody 6B11 (anti-Id DCs), to obtain CTLs specific to anti-idiotype antibody 6B11 (6B11-CTLs). One period consists of 7 days. On Day 3 of every period, 10 U/ml recombinant human interleukin-2 (rh IL-2) was supplemented. Finally, anti-idiotype antibody 6B11-CTLs were obtained after a one- or three-period stimulation.
All the CDR peptides of anti-idiotype antibody 6B11 (6 peptides) were synthesized artificially. The peptides were screened for Th epitope peptides by cell proliferation assay. Anti-idiotype antibody 6B11-CTLs stimulated for one period were used as reacting cells. DCs loaded with anti-idiotype antibodies and peptides respectively were used as stimulating cells. The reacting cells and the stimulating cells (in the ratio of 10:1) were co-incubated at 37° C. under 5% CO2 for 120 hours and then subject to BrdU ELISA cell proliferation assay. Each well contained 100 μl AIM-V culture medium and 1×10^5 anti-idiotype antibody 6B11-CTLs. Within the last 2 hours during stimulation, 10 μl BrdU labeling solution was added into each well and the fluid in the wells was removed. The cells were dried at 60° C. for 1 hour. 200 μl of FixDenat solution was added into each well. The reaction continued for 30 minutes at 37° C. for fixing DNA in the lymphocytes. Finally, 100 μl BrdU monoclonal antibody was added into each well for 90 minutes. The absorption value at 450 nm was read by an automatic microplate reader after substrate chromogenic reaction for detecting the proliferation of the cells. The group of DCs without loading and the group of phytohaemagglutinin (PHA) were used as negative and positive control respectively. […] Other peptides could not stimulate the proliferation of the reacting cells. […]

For “IALITTKIAWYFDV (VH CDR3 region peptide) [VH CDR3 peptide]”, the “proliferation after blocking by MHC class II antibodies” value was “could be blocked mostly” and the “proliferation of reacting cells 6B11-CTLs” value was “could stimulate the proliferation”.
SQSTHFPYT (VL CDR3 region peptide) was tested, and the “proliferation after blocking by MHC class II antibodies” value was “could not be blocked” and the “proliferation of reacting cells 6B11-CTLs” value was “could stimulate the proliferation”.
